Measured values from paper PMC11720699, “Developing Allosteric Chaperones for GBA1-Associated Disorders—An Integrated Computational and Experimental Approach” (International Journal of Molecular Sciences, 2024).

Assays:
[1] = system: monohexosylceramide (HexCer); assay: HexCer substrate quantification by LC/MS-MS in GD patient fibroblasts; format: cell-based, human; conditions: L444P/L444P fibroblasts
Procedure: L444P/L444P fibroblasts have impaired GCase activity due to the presence of the mutation, resulting in the accumulation of toxic substrates, glucosylceramide (GlcCer), and other related sphingolipids in the lysosome. To evaluate the efficacy of the compounds in reducing substrate accumulation, we quantified monohexosylceramide (HexCer) species (including GluCer) after treatment of L444P/L444P fibroblasts with compounds 2 and 3. The accumulation and clearance of these substrates were measured by liquid chromatography-tandem mass spectrometry (LC/MS-MS), quantifying the total HexCer species. […] Moreover, at higher concentrations, it inhibited GCase activity (Figure 5A), leading to increased accumulation of HexCer (Figure 5C).
For fibroblast samples, cell pellets were dissolved in 150 µL of methanol containing 0.5% formic acid and 1 µM GalCer-d35 (C18 Galactosylceramide-d35 [d18:1/18:0-d35]; 24467 Cayman, Ann Arbor, MI, USA) as an internal standard. The samples were shaken for 1 h and sonicated once for 4 s at 30% amplitude. The supernatant was then collected by centrifugation at 13,000 G for 5 min at 4 °C. Sphingolipid analysis was performed using UPLC with an Agilent 1290 Infinity II/QQQ G6475 mass spectrometer system. […] HexCer was monitored in multiple reaction monitoring (MRM) mode, quantifying the 728.6 > 710.5 m/z transition.

[2] = biological target: T1, GCase (Homo sapiens, UniProt P04062); assay: GCase biochemical activity assay in wild-type fibroblast lysates; parameters: endogenous in cells; host or cells: wild-type fibroblasts (lysate); conditions: pH 5.6
T1 sequence (P04062 40-536): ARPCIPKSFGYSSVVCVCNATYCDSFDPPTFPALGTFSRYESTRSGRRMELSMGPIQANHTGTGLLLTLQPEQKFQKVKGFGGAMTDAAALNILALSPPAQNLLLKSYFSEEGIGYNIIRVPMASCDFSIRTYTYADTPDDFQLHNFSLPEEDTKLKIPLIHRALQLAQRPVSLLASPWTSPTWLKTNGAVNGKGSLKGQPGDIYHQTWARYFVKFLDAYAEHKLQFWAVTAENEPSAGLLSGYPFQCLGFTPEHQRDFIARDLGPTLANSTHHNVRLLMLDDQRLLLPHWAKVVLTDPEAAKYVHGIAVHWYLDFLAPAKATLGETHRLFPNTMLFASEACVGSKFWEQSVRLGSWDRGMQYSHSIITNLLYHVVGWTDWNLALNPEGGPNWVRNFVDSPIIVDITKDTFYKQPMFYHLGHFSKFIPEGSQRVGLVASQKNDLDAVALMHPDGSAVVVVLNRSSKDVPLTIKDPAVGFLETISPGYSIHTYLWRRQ
Procedure: Lysates were prepared from wild-type fibroblasts using a lysis buffer containing 0.9% NaCl and 0.01% Triton-X100. Protein concentration was measured with a BCA protein assay kit. The cell lysates were then incubated with the specified compound for 15 min. The assay was conducted in a reaction buffer with 5 mM 4-methylumbelliferyl-beta-D-glucopyranoside in 0.1 M citrate-phosphate buffer at pH 5.6. The reactions were incubated at 37 °C for 1 h. To stop the reaction, 140 µL of 100 mM Glycine-NaOH buffer at pH 10.7 was added. The released 4-MU was measured using a Glomax® Discover microplate reader, with excitation at 340 nm and emission at 460 nm.

[3] = biological target: T1, GCase; assay: Differential scanning fluorimetry (DSF) thermal stabilization of GCase; format: binding; parameters: purchased R&D Systems; conditions: pH 7.2, DSF, 30 µM compound, read-out: ΔTm (thermal shift relative to rhGCase alone)
From the text: DSF is a method used to evaluate protein thermal stability and detect ligand interactions by observing how binding affects protein stability. Specifically, it examines the interaction between small molecules and the human GCase protein. DSF uses fluorescent dyes to track protein unfolding as temperature changes. As the protein unfolds due to rising temperatures, its hydrophobic regions become exposed, altering the dye’s fluorescence signal. This change helps determine the melting temperature (Tm). Variations in Tm compared to the protein alone reveal interactions with tested compounds, aiding in identifying molecules that stabilize GCase.
The ability of the compounds to stabilize the GCase protein was evaluated using DSF. This involved monitoring the thermal denaturation of the purified human native enzyme with the fluorescent probe SYPRO™ Orange (Thermo Fisher Scientific, Waltham, MA, USA), which binds to hydrophobic regions exposed during protein unfolding. Each reaction (25 μL) was conducted in triplicate in a 96-well plate. The reactions included 12.5 µL of […] rhGCase protein (R&D Systems) in a buffer of 10 mM Na3PO4, 164 mM NaCl, pH 7.2, resulting in a final protein concentration of 1 µM with SYPRO Orange 10x. Additionally, 12.5 µL of various compound solutions, initially dissolved in 100% DMSO and diluted in the protein buffer to a final concentration of 1% DMSO, were added. The fluorescence intensity of SYPRO Orange was measured as the temperature increased using the Roche LightCycler® 480 II (Roche Diagnostics). The significance of melting temperature (Tm) shifts was determined by two criteria: an absolute ∆Tm shift greater than 0.5 °C (instrumental criterion) and an absolute ΔTm standard deviation of 0.2 or less (statistical criterion). The thermal shift dose response was tested with GCase (R&D Systems) in two independent experiments, each performed in triplicate at a concentration of 30 µM for the DSF assays.

Structure (SMILES)	effect on HexCer levels [1]	effect on GCase enzymatic activity in lysates [2]	ΔTm at 30 µM [3]
CN(C(=O)c1cc(N)cc(Nc2cccc3c2OCO3)n1)c1ccccc1 [Compound 3]	successfully decreased HexCer levels	without altering its enzymatic function	-0.64 °C
CN(Cc1ccccc1)Cc1nc(N)nc(Nc2cccc(Br)c2)n1 [Compound 2]	ineffective in lowering sphingolipid levels	displayed inhibitory effects	-0.1 °C
